From US20260132129A1 (Genesis Therapeutics, Inc., priority 2022, published 2026)

Target: T1, PI3Kα H1047R (T47D cells) (Homo sapiens, UniProt P42336, H1047R)
T1 construct: endogenous in cells; host or cells: T47D cells
Test: PI3Kα cellular assay: pAKT HTRF in T47D cells after EGF stimulation
Type: cell-based
Settings: for IC50: T47D cells (PI3Kα H1047R), pAKT S473 HTRF, 1 hr compound, 20 ng/ml EGF 10 min
Experimental: SKBR3 or T47D cells are seeded in DMEM containing 10% FBS at 25k cells/well into 96-well cell culture format. Cells are incubated overnight at 37° C. in a 5% CO2 incubator and the following day cell media is aspirated, adherent cells are washed 1× with room temperature PBS prior to serum-free media application. Cells are returned to 37° C. 5% CO2 incubator and incubated a further 16 hrs. Compounds are added to serum starved adherent cells with a top dose of 10,000 nM and 3× multiple dose reductions for a minimum dose of 0.5 nM diluted in DMSO. Cell/compound incubation continues for 1 hr in a 37° C., 5% CO2 incubator prior to 10 minute PIK3CA stimulation with 20 ng/ml EGF. Cells treated with 0.1% DMSO and 20 ng/mL EGF are employed as negative control, cells treated with 10 uM Alpelisib and 20 ng/mL EGF are employed as a positive control. After 10 mins, plates are removed from incubator and cells are lysed with buffer and shaking 45 minutes. […] 384 well plate is left overnight at room temperature before reading HTRF on an Envision plate reader.
ND denotes value not determined with that assay for the specified compound; • for T47D (H1047R) selectivity over SKBR3 (WT): A denotes >20-fold; B denotes 20-fold≥value>5-fold; C denotes ≤5-fold. ND denotes value not determined with that assay for the specified compound; and • for T47D pAKT lipophilic efficiency (LiPE): A denotes >4; B denotes 4≥value>2; C denotes ≤2. ND denotes value not determined with that assay for the specified compound.

T1 sequence (P42336 whole entry H1047R): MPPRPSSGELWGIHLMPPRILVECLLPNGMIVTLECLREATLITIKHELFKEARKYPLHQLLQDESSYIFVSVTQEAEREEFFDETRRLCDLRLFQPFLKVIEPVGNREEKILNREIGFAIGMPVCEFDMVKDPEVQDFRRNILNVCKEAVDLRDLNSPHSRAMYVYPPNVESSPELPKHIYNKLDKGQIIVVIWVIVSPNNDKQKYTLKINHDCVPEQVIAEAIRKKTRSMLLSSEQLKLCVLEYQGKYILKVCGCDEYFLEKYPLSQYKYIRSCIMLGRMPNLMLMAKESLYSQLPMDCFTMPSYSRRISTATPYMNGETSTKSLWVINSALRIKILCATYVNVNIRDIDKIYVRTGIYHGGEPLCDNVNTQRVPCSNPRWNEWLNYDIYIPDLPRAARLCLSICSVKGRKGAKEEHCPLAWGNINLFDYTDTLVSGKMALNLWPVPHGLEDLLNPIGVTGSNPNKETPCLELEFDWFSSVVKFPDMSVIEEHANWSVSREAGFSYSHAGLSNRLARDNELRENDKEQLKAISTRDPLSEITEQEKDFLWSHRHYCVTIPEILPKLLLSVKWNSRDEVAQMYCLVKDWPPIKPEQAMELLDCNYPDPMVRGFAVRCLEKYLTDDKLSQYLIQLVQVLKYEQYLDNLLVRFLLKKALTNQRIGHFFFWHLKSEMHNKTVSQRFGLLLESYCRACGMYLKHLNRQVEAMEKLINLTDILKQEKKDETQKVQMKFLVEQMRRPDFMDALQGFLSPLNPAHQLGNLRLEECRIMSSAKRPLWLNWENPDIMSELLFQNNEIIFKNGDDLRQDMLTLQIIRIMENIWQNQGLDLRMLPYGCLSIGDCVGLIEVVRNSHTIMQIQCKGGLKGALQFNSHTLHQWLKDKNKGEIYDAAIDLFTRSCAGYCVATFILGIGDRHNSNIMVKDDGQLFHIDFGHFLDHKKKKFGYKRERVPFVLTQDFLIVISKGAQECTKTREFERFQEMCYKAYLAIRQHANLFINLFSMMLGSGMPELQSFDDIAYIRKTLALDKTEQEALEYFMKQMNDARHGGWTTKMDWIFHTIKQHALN
T1 sequence (P27986 whole entry partner): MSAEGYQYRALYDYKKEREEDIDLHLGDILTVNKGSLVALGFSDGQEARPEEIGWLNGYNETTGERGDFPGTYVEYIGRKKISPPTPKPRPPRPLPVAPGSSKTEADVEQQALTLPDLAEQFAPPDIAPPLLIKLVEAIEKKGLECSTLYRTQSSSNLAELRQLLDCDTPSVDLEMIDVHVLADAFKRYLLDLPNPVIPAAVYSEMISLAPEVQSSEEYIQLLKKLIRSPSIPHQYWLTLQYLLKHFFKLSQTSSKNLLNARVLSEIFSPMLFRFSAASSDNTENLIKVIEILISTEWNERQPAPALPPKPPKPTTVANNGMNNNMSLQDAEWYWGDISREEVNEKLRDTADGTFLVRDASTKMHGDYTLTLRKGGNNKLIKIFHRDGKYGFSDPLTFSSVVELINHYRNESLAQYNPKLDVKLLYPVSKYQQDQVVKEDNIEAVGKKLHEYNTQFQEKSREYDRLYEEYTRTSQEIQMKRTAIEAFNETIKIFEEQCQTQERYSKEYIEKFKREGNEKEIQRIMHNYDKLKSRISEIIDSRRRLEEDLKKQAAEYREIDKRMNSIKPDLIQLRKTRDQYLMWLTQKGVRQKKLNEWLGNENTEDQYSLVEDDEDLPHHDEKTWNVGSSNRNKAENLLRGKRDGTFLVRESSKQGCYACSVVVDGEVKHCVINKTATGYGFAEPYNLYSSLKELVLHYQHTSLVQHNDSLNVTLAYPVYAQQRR

Row | SMILES | IC50 | T47D pAKT S473 HTRF IC50 (H1047R): T47D (H1047R) selectivity over SKBR3 (WT)
1 | Cc1cc([C@H](C)Nc2ccccc2C(N)=O)c2nc(N3CCOCC3)cc(=O)n2c1 [Compound 147] | 0.5 to 2 µM | B (B denotes 20-fold≥value>5-fold)
2 | CCc1cc([C@@H](C)Nc2ccccc2C(=O)O)c2nc(N3CCOCC3)cc(=O)n2c1 [Compound 149] | > 2 µM | C (C denotes ≤5-fold)
3 | Cc1cc(C(C)Nc2ccccc2S(N)(=O)=O)c2nc(N3CCOCC3)cc(=O)n2c1 (stereo not drawn) [Compound 151] | – | C (C denotes ≤5-fold)
4 | Cc1cc([C@H](C)Nc2ccccc2S(N)(=O)=O)c2nc(N3CCOCC3)cc(=O)n2c1 [Compound 152] | 0.5 to 2 µM | B (B denotes 20-fold≥value>5-fold)
5 | Cc1cc(C(C)Nc2ccccc2C)c2nc(N3CCOCC3)cc(=O)n2c1 (stereo not drawn) [Compound 154] | > 2 µM | C (C denotes ≤5-fold)
6 | Cc1cc([C@@H](C)Nc2ccccc2C(=O)NS(C)(=O)=O)c2nc(N3CCOCC3)cc(=O)n2c1 [Compound 155] | > 2 µM | C (C denotes ≤5-fold)
7 | Cc1cc([C@@H](C)Nc2ccccc2CC(=O)O)c2nc(N3CCOCC3)cc(=O)n2c1 [Compound 157] | > 2 µM | C (C denotes ≤5-fold)
8 | Cc1cc([C@H](C)Nc2ccccc2CC(=O)O)c2nc(N3CCOCC3)cc(=O)n2c1 [Compound 158] | > 2 µM | C (C denotes ≤5-fold)
9 | Cc1cc([C@H](C)Nc2ccccc2S(C)(=O)=O)c2nc(N3CCOCC3)cc(=O)n2c1 [Compound 160] | > 2 µM | C (C denotes ≤5-fold)
10 | Cc1cc([C@@H](C)Nc2ccccc2C(=O)O)c2nc(C)cc(=O)n2c1 [Compound 178] | – | C (C denotes ≤5-fold)
11 | Cc1cc(C(C)Nc2cnccc2C(=O)O)c2nc(N3CCOCC3)cc(=O)n2c1 (stereo not drawn) [Compound 194] | > 2 µM | C (C denotes ≤5-fold)
12 | CCN1CCN(Cc2ccccc2-c2cc(=O)n3cc(C)cc(C(C)Nc4ccccc4C(=O)O)c3n2)CC1 (stereo not drawn) [Compound 229] | > 2 µM | C (C denotes ≤5-fold)
13 | Cc1cc(C(C)Nc2ccccc2C(=O)O)c2nc(N3CCSCC3)cc(=O)n2c1 (stereo not drawn) [Compound 239] | > 2 µM | C (C denotes ≤5-fold)
14 | Cc1cc(C(C)Nc2ccccc2C(=O)O)c2nc(N3CCSCC3)cc(=O)n2c1 (stereo not drawn) [Compound 240] | < 0.1 µM | A (A denotes >20-fold)
15 | Cc1cc([C@@H](C)Nc2ccccc2C)c2nc(N3CCOCC3)cc(=O)n2c1 [Compound 248] | < 0.1 µM | C (C denotes ≤5-fold)
16 | Cc1cc([C@H](C)Nc2ccccc2C)c2nc(N3CCOCC3)cc(=O)n2c1 [Compound 249] | 0.5 to 2 µM | C (C denotes ≤5-fold)
17 | Cc1cc([C@H](C)Nc2ccccc2)c2nc(-c3cc(C)c4oc(=O)[nH]c4c3)cc(=O)n2c1 [Compound 252] | > 2 µM | C (C denotes ≤5-fold)
18 | Cc1cc([C@H](C)Nc2ccccc2)c2nc(-c3cc(F)c4c(N)n[nH]c4c3)cc(=O)n2c1 [Compound 258] | > 2 µM | C (C denotes ≤5-fold)
19 | Cc1cc([C@@H](C)Nc2cc(F)cc(F)c2)c2nc(N3CCOCC3)cc(=O)n2c1 [Compound 263] | 0.5 to 2 µM | C (C denotes ≤5-fold)
20 | Cc1cc([C@H](C)Nc2cc(F)cc(F)c2)c2nc(N3CCOCC3)cc(=O)n2c1 [Compound 264] | > 2 µM | C (C denotes ≤5-fold)

Row | SMILES | IC50 | T47D pAKT S473 HTRF IC50 (H1047R): T47D (H1047R) selectivity over SKBR3 (WT)
21 | Cc1cc(C(C)Nc2ccccc2)c2nc(-c3cnc4[nH]nc(-c5ccccc5)c4c3)cc(=O)n2c1 (stereo not drawn) [Compound 265] | > 2 µM | C (C denotes ≤5-fold)
22 | Cc1cc([C@H](C)Nc2ccccc2)c2nc(-c3cnc4[nH]nc(-c5ccccc5)c4c3)cc(=O)n2c1 [Compound 266] | > 2 µM | C (C denotes ≤5-fold)
23 | Cc1cc(C(C)Nc2ccccc2C(=O)O)c2nc(-c3ccncc3)cc(=O)n2c1 (stereo not drawn) [Compound 267] | 0.1 to 0.5 µM | A (A denotes >20-fold)
24 | CC(Nc1ccccc1C(=O)O)c1cc(C#N)cn2c(=O)cc(N3CCOCC3)nc12 (stereo not drawn) [Compound 273] | > 2 µM | C (C denotes ≤5-fold)
25 | CC(Nc1ccccc1C(=O)O)c1cc(C(N)=O)cn2c(=O)cc(N3CCOCC3)nc12 (stereo not drawn) [Compound 276] | < 0.1 µM | C (C denotes ≤5-fold)
26 | Cc1cc(C(C)Nc2ccccc2)c2nc(-c3ccc(N4CC(C)(C)C4)c(C#N)c3)cc(=O)n2c1 (stereo not drawn) [Compound 280] | – | C (C denotes ≤5-fold)
27 | Cc1cc(C(C)NC2=C(CC(=O)O)C=CCC2)c2nc(N3CCSCC3)cc(=O)n2c1 (stereo not drawn) [Compound 284] | > 2 µM | C (C denotes ≤5-fold)
28 | Cc1cc([C@@H](C)NC2=C(CC(=O)O)C=CCC2)c2nc(N3CCSCC3)cc(=O)n2c1 [Compound 285] | > 2 µM | C (C denotes ≤5-fold)
29 | Cc1cc([C@H](C)Nc2ccccc2CC(=O)O)c2nc(N3CCSCC3)cc(=O)n2c1 [Compound 286] | > 2 µM | C (C denotes ≤5-fold)
30 | Cc1cc(C(C)Nc2cccc(F)c2C(=O)O)c2nc(N3CCOCC3)cc(=O)n2c1 (stereo not drawn) [Compound 287] | > 2 µM | C (C denotes ≤5-fold)
31 | Cc1cc(C(C)Nc2ccc(F)cc2C(=O)O)c2nc(N3CCOCC3)cc(=O)n2c1 (stereo not drawn) [Compound 288] | 0.5 to 2 µM | B (B denotes 20-fold≥value>5-fold)
32 | Cc1cc(C(C)Nc2cc(F)ccc2C(=O)O)c2nc(N3CCOCC3)cc(=O)n2c1 (stereo not drawn) [Compound 289] | 0.1 to 0.5 µM | C (C denotes ≤5-fold)
33 | Cc1cc(C(C)Nc2c(F)cccc2C(=O)O)c2nc(N3CCOCC3)cc(=O)n2c1 (stereo not drawn) [Compound 290] | > 2 µM | C (C denotes ≤5-fold)
34 | CC[C@@H](Nc1ccccc1C(=O)O)c1cc(C)cn2c(=O)cc(N3CCOCC3)nc12 [Compound 293] | > 2 µM | C (C denotes ≤5-fold)
35 | CC[C@H](Nc1ccccc1C(=O)O)c1cc(C)cn2c(=O)cc(N3CCOCC3)nc12 [Compound 294] | 0.5 to 2 µM | C (C denotes ≤5-fold)
36 | Cc1cc(C(C)Nc2ccccc2C(=O)O)c2nc(N3CCOC[C@H]3C)cc(=O)n2c1 (stereo partly drawn) [Compound 295] | 0.5 to 2 µM | B (B denotes 20-fold≥value>5-fold)
37 | Cc1cc([C@@H](C)Nc2ccccc2C(=O)O)c2nc(N3CCOC[C@H]3C)cc(=O)n2c1 [Compound 296] | > 2 µM | C (C denotes ≤5-fold)
38 | Cc1cc([C@H](C)Nc2ccccc2C(=O)O)c2nc(N3CCOC[C@H]3C)cc(=O)n2c1 [Compound 297] | 0.1 to 0.5 µM | A (A denotes >20-fold)
39 | CONC(=O)c1ccc(-c2cc(=O)n3cc(C)cc(C(C)NC4=CC=CCC4C(=O)O)c3n2)c(OC)c1 (stereo not drawn) [Compound 299] | > 2 µM | C (C denotes ≤5-fold)
